“And” between values parts separate entries of the source, which are not always exact repeats. Equal entries are not always repeated.
Columns and labels:
[1] = target: EGFR (UniProt P00533); conditions: cho.ir; for activation: concentration not given here
[2] = target: EGFR (UniProt P00533)
[3] = target: MAPK14 (UniProt Q16539)
[4] = target: CDK2 (human) (UniProt P24941); assay: Enzyme Assay
[5] = target: ROCK2 (human) (UniProt O75116)
[6] = target: PIK3CG;PIK3CA (human) (UniProt P48736); assay: Antiproliferation of PC3-MM2 Cells; conditions: pc-3
Sequence of PIK3CG;PIK3CA (human) (P48736 whole entry, looked up): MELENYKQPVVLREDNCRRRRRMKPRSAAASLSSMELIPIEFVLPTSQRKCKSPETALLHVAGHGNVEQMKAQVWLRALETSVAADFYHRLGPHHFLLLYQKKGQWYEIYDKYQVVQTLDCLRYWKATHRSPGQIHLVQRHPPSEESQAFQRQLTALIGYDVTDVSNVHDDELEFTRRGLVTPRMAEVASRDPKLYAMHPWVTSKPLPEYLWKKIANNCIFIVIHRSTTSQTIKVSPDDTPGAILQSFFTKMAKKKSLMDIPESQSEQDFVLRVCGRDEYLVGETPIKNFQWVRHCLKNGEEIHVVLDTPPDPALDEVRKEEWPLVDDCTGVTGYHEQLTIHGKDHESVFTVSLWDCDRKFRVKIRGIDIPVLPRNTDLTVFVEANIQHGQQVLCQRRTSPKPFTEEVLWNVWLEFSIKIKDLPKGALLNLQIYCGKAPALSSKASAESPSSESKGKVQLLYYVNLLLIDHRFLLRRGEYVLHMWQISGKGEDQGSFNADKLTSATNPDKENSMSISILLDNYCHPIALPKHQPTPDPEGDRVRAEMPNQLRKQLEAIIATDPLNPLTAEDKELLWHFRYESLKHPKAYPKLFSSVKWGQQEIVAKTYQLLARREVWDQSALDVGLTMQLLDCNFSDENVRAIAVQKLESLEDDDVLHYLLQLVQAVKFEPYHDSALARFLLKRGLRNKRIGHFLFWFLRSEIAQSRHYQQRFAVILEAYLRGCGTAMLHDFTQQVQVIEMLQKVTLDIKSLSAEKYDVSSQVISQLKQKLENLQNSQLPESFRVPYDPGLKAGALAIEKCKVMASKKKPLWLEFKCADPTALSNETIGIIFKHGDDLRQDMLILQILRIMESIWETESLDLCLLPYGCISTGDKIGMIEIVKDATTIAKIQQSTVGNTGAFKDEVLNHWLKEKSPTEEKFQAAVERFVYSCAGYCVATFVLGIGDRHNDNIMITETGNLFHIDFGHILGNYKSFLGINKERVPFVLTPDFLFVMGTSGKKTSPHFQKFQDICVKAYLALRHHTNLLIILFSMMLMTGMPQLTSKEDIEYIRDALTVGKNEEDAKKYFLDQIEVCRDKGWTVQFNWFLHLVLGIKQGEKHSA

[7] = target: EGFR (UniProt P00533); conditions: concentration not given here
[8] = target: PIK3CG (UniProt P48736); assay: Inhibition of PIK3CG Kinase Activity
Sequence of PIK3CG (P48736 whole entry, looked up): as above

[9] = target: EGFR (Hamster) (UniProt P00533)
[10] = target: PIK3CA (human) (UniProt P42336); assay: Inhibition of PIK3CA Kinase Activity
Sequence of PIK3CA (human) (P42336 whole entry, looked up): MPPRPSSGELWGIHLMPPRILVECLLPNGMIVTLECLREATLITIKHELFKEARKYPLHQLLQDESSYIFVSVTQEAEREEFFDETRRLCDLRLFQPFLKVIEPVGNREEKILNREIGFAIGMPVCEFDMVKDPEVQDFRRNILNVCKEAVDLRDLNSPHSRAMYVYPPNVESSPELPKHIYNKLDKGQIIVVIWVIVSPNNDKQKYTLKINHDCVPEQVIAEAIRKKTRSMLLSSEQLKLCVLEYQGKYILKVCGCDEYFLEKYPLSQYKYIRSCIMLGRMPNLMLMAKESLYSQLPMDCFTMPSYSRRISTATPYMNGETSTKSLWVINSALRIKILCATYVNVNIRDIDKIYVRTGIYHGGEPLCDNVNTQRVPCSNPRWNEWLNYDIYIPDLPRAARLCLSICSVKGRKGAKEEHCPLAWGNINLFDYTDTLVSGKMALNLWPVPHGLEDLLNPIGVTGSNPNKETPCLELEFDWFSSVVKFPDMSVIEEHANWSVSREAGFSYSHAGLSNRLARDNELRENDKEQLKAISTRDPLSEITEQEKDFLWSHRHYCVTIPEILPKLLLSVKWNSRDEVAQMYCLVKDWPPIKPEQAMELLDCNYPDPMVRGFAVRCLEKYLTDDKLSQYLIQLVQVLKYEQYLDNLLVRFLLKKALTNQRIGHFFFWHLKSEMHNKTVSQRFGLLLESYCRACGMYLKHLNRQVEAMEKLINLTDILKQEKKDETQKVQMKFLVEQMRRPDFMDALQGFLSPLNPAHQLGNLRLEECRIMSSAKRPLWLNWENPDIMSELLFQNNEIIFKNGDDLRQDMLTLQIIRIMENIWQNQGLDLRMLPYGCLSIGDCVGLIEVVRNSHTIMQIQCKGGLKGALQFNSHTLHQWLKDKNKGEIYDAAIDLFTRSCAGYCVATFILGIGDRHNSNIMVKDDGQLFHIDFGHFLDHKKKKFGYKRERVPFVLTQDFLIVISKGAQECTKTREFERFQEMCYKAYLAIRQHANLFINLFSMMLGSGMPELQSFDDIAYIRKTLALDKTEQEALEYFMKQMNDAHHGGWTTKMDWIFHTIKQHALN

[11] = target: PIK3CG (human) (UniProt P48736); assay: Inhibition of PIK3CG Kinase Activity
Sequence of PIK3CG (human) (P48736 whole entry, looked up): as the sequence (P48736 whole entry, looked up) above

[12] = target: PIK3CD (Human) (UniProt O00329); assay: Inhibition of PIK3CD Kinase Activity
[13] = target: PIK3CB (Human) (UniProt P42338); assay: Inhibition of PIK3CB Kinase Activity
Sequence of PIK3CB (Human) (P42338 whole entry, looked up): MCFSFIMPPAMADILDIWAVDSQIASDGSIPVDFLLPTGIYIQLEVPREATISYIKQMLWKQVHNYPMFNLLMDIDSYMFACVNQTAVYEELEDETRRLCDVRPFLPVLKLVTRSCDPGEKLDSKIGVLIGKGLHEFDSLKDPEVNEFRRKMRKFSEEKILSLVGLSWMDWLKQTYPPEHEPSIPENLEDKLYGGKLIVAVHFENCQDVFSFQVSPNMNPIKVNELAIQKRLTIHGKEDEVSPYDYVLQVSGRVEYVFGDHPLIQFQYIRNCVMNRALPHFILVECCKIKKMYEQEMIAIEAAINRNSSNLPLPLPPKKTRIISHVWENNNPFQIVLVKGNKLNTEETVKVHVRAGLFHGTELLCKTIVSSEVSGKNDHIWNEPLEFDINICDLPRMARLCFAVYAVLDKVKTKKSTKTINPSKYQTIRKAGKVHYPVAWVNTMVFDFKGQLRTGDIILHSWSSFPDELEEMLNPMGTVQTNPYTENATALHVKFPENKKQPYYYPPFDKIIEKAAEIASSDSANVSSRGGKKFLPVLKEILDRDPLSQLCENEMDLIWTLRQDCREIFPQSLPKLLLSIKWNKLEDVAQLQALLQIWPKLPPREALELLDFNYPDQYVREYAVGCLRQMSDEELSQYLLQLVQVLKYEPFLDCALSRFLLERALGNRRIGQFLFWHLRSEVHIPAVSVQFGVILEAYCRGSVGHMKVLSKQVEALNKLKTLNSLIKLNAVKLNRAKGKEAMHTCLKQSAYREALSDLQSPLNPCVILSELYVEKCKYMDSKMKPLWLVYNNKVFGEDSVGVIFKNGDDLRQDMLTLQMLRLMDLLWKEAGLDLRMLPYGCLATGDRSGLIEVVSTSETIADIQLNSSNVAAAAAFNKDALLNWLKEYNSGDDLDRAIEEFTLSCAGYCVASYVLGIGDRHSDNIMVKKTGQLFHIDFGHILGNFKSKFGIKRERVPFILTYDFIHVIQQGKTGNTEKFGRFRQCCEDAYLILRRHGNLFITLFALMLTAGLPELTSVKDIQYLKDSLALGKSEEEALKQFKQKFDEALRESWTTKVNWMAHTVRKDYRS

[14] = target: EGFR (UniProt P00533); remark: listed apart in the source
[15] = target: EGFR (mouse) (UniProt P00533)
[16] = target: EGFR (UniProt P00533); remark: listed apart in the source

Sequence of MAPK14 (Q16539 whole entry, looked up): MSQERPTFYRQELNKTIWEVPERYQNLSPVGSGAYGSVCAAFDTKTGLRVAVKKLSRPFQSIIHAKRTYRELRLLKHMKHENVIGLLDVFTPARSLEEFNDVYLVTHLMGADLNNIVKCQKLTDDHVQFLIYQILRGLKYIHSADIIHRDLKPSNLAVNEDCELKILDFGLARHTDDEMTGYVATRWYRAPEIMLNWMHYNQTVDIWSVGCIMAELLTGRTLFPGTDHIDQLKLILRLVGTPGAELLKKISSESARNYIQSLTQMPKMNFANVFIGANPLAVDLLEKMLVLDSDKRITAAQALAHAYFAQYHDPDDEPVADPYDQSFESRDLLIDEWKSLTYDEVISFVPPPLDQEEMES
Sequence of ROCK2 (human) (O75116 whole entry, looked up): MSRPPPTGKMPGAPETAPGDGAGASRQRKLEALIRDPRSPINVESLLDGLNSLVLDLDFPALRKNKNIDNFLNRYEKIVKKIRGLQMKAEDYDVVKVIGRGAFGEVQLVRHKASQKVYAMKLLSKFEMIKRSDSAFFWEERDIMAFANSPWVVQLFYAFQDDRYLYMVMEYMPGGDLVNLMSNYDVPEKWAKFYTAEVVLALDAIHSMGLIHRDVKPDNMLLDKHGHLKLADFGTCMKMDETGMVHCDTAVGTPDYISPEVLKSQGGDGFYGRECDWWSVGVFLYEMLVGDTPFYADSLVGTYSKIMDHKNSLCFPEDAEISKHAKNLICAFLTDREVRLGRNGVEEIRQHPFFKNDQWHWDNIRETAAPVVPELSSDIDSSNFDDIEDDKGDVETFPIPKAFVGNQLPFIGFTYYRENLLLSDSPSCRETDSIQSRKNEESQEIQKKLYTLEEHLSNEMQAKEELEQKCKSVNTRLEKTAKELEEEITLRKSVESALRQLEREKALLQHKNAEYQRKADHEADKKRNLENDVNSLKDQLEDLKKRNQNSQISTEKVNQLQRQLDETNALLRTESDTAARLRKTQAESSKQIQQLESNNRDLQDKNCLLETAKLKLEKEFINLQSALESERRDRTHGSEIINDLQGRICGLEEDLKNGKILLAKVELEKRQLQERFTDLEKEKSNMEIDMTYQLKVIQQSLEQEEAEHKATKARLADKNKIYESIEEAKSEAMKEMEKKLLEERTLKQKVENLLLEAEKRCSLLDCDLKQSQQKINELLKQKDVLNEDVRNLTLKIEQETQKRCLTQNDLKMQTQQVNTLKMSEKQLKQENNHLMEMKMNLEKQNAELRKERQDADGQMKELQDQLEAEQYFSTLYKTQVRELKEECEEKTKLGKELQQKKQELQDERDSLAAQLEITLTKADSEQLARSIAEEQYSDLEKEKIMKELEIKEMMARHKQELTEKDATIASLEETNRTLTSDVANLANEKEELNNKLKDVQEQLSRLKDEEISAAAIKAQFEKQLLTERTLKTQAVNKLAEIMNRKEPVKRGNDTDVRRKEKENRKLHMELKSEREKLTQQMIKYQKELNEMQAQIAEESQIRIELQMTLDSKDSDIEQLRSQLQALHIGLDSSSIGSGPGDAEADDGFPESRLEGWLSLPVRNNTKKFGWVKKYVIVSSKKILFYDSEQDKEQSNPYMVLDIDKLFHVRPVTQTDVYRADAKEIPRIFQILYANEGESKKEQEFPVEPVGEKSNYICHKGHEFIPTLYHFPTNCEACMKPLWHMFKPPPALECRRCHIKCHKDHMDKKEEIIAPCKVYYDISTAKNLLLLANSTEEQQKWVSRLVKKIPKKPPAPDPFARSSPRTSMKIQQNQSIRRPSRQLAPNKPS

Q: With `O=C1C(O)=C(c2c[nH]c3ccccc23)C(=O)C(O)=C1c1ccccc1` as the compound, how does the EC50 [1] read?
A: 20000 nM

Q: `CN(C)c1cc2c(Nc3cccc(Br)c3)ncnc2cn1` was tested. Which IC50 [2] did it give?
A: 0.006 nM

Q: `Fc1ccc(-c2ncn(C3CCNCC3)c2-c2ccnc(Sc3ccccc3)c2)cc1` was tested. Which inhibition [3] did it give?
A: < 50 µM

Q: `CC[C@H](Nc1nc(NCc2cccc(F)c2)c2ncn(C(C)C)c2n1)[C@@H](C)O` was tested. Which IC50 [4] did it give?
A: 120 nM

Q: `COc1ccc(Oc2cc(-c3c(-c4ccc(F)cc4)ncn3C3CCNCC3)ccn2)cc1` was tested. Which inhibition [3] did it give?
A: < 50 µM

Q: For `COc1ccc2c(c1)CN[C@@H](C(=O)Nc1ccc(-c3cn[nH]c3)cc1OCCN(C)C)C2`, which IC50 [5] is on record?
A: 261 nM

Q: With `COc1ccc2c(c1)c(/C=C1\Oc3cc(O)cc(O)c3C1=O)c1n2CCN(C)C1=O` as the compound, how does the IC50 [6] read?
A: 5050 nM

Q: For `CC1CC1C(=O)Nc1sc2c(Cl)c(O)ccc2c1C(N)=O` (stereo unspecified), which inhibition [7] is on record?
A: > 50%

Q: With `N#CN=C1NC(=O)/C(=C/c2ccc3nccnc3c2)S1` as the compound, how does the IC50 [8] read?
A: < 1000 nM

Q: Which IC50 [9] does the source give for `O=C(O)c1cc(N=Cc2ccccc2O)ccc1O` here?
A: > 100000 nM

Q: Which EC50 [1] does the source give for `C=CC(C)(C)c1[nH]c2ccccc2c1C1=C(O)C(=O)C(c2c[nH]c3c(CC=C(C)C)cccc23)=C(O)C1=O` here?
A: 15000 nM

Q: Which IC50 [10] does the source give for `C=CCN(/C=C1/C(=O)O[C@H](COC)[C@@]2(C)C1=C(O)C(=O)C1=C2[C@H](OC(C)=O)C[C@]2(C)C(=O)CC[C@H]12)CC=C` here?
A: 39 nM

Q: What about the IC50 [11] of the same compound?
A: 198 nM

Q: And the IC50 [12]?
A: 124 nM

Q: What about the IC50 [13] of the same compound?
A: 88 nM

Q: For `COC(=O)c1cc(N=Cc2cc(OC)ccc2OC)ccc1O`, which IC50 [9] is on record?
A: > 10000 nM

Q: `O=C(Nc1cccc([N+](=O)[O-])c1)Nc1ncnc2nn3ccccc3c12` was tested. Which IC50 [14] did it give?
A: > 10000 nM

Q: Which IC50 [9] does the source give for `COC(=O)c1cc(N=Cc2cccc(O)c2)ccc1O` here?
A: > 100000 nM

Q: `NC(=O)c1c(NC(=O)Nc2ccc(F)cc2)sc2c1CCC(=O)C2` was tested. Which inhibition [7] did it give?
A: > 50%

Q: Which IC50 [14] does the source give for `O=C(Nc1ccc(Br)cc1)Nc1ncnc2nn3ccccc3c12` here?
A: > 10000 nM

Q: How did the IC50 [4] turn out when `CC[C@H](Nc1nc(NCc2cnc(C)cc2C)c2ncn(C(C)C)c2n1)[C@@H](C)O` was run?
A: 90 nM and 40 nM

Q: With `COc1cc2c(Nc3cccc(Br)c3)ncnc2cn1` as the compound, how does the IC50 [2] read?
A: 0.0026 nM

Q: For `CC(C)[C@H]1C(=O)N[C@H](CO)Cc2c[nH]c3cccc(c23)N1C`, which ID50 [15] is on record?
A: 1110 nM

Q: With `Fc1ccc(-c2ncn(C3CCNCC3)c2-c2ccnc(Oc3ccccc3)c2)cc1` as the compound, how does the inhibition [3] read?
A: < 50 µM

Q: How did the activation [1] turn out when `O=C1C(O)=C(c2coc3ccccc23)C(=O)C(O)=C1c1ccccc1` was run?
A: < 5%

Q: For `Nc1ccc2ncnc(Nc3cccc(Br)c3)c2n1`, which IC50 [2] is on record?
A: 7.6 nM

Q: Which inhibition [7] does the source give for `NN=C1CCc2c(sc(NC(=O)C3CC3)c2C(N)=O)C1` here?
A: > 50%

Q: For `CCCCC[C@@H](Cc1ccc2c3c(c[nH]c13)C[C@@H](CO)NC(=O)[C@H](C(C)C)N2C)NC(=O)c1ccc(N=[N+]=[N-])cc1`, which ID50 [15] is on record?
A: 71 nM

Q: With `CCCCC[C@H](Cc1ccc2c3c(c[nH]c13)C[C@@H](CO)NC(=O)[C@H](C(C)C)N2C)NC(=O)c1ccc(N=[N+]=[N-])cc1` as the compound, how does the ID50 [15] read?
A: 89 nM

Q: How did the IC50 [8] turn out when `COC(=O)c1sccc1S(=O)(=O)N=C1NC(=O)/C(=C/c2ccc3ncccc3c2)S1` was run?
A: < 1000 nM

Q: `CCC(Nc1nc(NCc2ccc(C(F)(F)F)nc2)c2ncn(C(C)C)c2n1)C(O)C(F)(F)F` (stereo unspecified) was tested. Which IC50 [4] did it give?
A: 368 nM

Q: With `COc1ccc2c(c1)c(/C=C1\Oc3cc(O)cc(O)c3C1=O)c1n2CCOC1=O` as the compound, how does the IC50 [6] read?
A: 5630 nM

Q: Which IC50 [8] does the source give for `CON=C1NC(=O)/C(=C/c2ccc3c(c2)OCO3)S1` here?
A: < 1000 nM

Q: `COc1ccc2c(c1)c(/C=C1\Oc3cc(O)cc(O)c3C1=O)c1n2CCNC1` was tested. Which IC50 [6] did it give?
A: 2190 nM

Q: Which IC50 [5] does the source give for `NC(Cc1cccc(Cl)c1)C(=O)Nc1ccc(-c2cn[nH]c2)cc1` (stereo unspecified) here?
A: 2 nM

Q: Which IC50 [8] does the source give for `O=C1NC(=NCc2ccccc2)S/C1=C\c1ccc2c(c1)OCO2` here?
A: < 1500 nM

Q: `COc1ccc2ncnc(Nc3cccc(Br)c3)c2c1` was tested. Which IC50 [2] did it give?
A: 30 nM

Q: Which IC50 [5] does the source give for `CCN1Cc2ccc(OC)cc2C[C@@H]1C(=O)Nc1ccc(-c2cn[nH]c2)cc1OCCN(C)C` here?
A: 9 nM

Q: How did the activation [1] turn out when `Cn1cc(C2=C(O)C(=O)C(c3ccccc3)=C(O)C2=O)c2ccccc21` was run?
A: < 5%

Q: For `Cc1nc(N)nc2c1cc(-c1ccc(N)nc1)c(=O)n2[C@@H]1CCOC1`, which IC50 [10] is on record?
A: < 9.1 nM

Q: What about the IC50 [13] of the same compound?
A: 34 nM

Q: `CCCCCCCCCCCC(=O)O[C@@H]1[C@@H](C)[C@@]2(O)[C@@H](C=C(CO)C[C@]3(O)C(=O)C(C)=C[C@@H]23)[C@@H]2C(C)(C)[C@]12OC(C)=O` was tested. Which ID50 [15] did it give?
A: 1.33 nM

Q: `CC1(C)CNC(=O)c2sc(N3CCOC[C@@H]3Cc3c[nH]c4ncccc34)nc2C1` was tested. Which IC50 [10] did it give?
A: 59 nM

Q: What about the IC50 [11] of the same compound?
A: 31 nM

Q: And the IC50 [12]?
A: 18 nM

Q: And the IC50 [13]?
A: 1010 nM

Q: How did the IC50 [16] turn out when `CN(C)CCCn1nc(C2=C(c3cn(-c4cnc5ccccc5c4)c4ccccc34)C(=O)NC2=O)c2ccccc21` was run?
A: > 10000 nM

Q: With `COc1ccc(C2=C(O)C(=O)C(c3ccccc3)=C(O)C2=O)cc1` as the compound, how does the activation [1] read?
A: < 5%

Q: `O=C(Nc1cccc(C(F)(F)F)c1)Nc1ncnc2nn3ccccc3c12` was tested. Which IC50 [14] did it give?
A: > 10000 nM

Q: Which IC50 [4] does the source give for `CC(C)n1cnc2c(NCc3cccnc3)nc(NCC(O)(C(F)(F)F)C(F)(F)F)nc21` here?
A: 949 nM

Q: Which IC50 [5] does the source give for `COc1cccc2c1CNC(C(=O)Nc1ccc(-c3cn[nH]c3)cc1OCCN(C)C)C2` (stereo unspecified) here?
A: 334 nM
